Source: patent US7605265B2, “Heterodimers and methods of using them” (priority 2007, dated 2009)

Tests used:
[1] = test system: transient focal ischemia; assay: MCAO (middle carotid artery occlusion model), transient focal ischemia; type: in vivo, mice
Procedure: The MCAO (middle carotid artery occlusion model) was performed to investigate the protective effects of compounds A, B and C on the brain when the brain was exposed to transient focal ischemia (lack of oxygen), emulating brain conditions during a stroke. […] The ability of the novel compounds to protect against the appearance of these neurological deficits was examined using a four-point scale neurological scoring system (Mann Whitney U test). For each of the following observable signs, the distribution of test subjects was noted (with and without treatment with the invention after ischemia): (0) no observable neurological deficits (normal); (1) failure to extend the left forepaw fully (mild); (2) circling to the contralateral side (moderate); and (3) loss of walking and righting reflex (severe). • (ii) The brains of the test subjects slices were sectioned into five pieces and the infarct area and volume of each slice was measured. The % of infarct area in test subjects treated with the invention after ischemia was compared to that of the control group for each brain slice. • (iii) Hemispheric brain swelling and infarct volume (the area of dead tissue caused by inadequate blood supply) was measured for test subjects treated with the invention after ischemia, and compared to that of the control group.
The compounds were administered 5 minutes after ischemia, 5 minutes after reperfusion, or 6 hours after ischemia. FIGS. 5a to 5f show results for the heterodimers compound B, C or A respectively, when administered 5 minutes after ischemia or reperfusion. FIGS. 5g and 5h show the results when the novel heterodimers were administered 6 hours after ischemia.
Compound B was administered at 5 minutes after ischemia. Distribution of neurological scores based on a four-point scale neurological scoring system (Mann Whitney U test): (0) no observable neurological deficits (normal); (1) failure to extend the left forepaw fully (mild); (2) circling to the contralateral side (moderate); and (3) loss of walking and righting reflex (severe).
The brain was sectioned into five pieces, each 2-mm thick. The infarct area of each posterior surface was analyzed by an image analysis program. The percentage of infarct area and volume were calculated and presented as the percentage of the infarct area of the contralateral hemisphere to eliminate the contribution of edema to the ischemic lesion.
The infarct area of each posterior surface was analyzed by an image analysis program. Hemispheric brain swelling was calculated as follows (ipsilateral volume−contralateral volume)/contralateral volume×100%.

[2] = target: T1, acetylcholinesterase (AChE) (Rattus norvegicus, UniProt P37136); assay: In vitro inhibition of AChE (cholinesterase assay, Ellman method); type: biochemical
T1 construct: from tissue; host or cells: rat brain cortex
T1 sequence (P37136 32-614): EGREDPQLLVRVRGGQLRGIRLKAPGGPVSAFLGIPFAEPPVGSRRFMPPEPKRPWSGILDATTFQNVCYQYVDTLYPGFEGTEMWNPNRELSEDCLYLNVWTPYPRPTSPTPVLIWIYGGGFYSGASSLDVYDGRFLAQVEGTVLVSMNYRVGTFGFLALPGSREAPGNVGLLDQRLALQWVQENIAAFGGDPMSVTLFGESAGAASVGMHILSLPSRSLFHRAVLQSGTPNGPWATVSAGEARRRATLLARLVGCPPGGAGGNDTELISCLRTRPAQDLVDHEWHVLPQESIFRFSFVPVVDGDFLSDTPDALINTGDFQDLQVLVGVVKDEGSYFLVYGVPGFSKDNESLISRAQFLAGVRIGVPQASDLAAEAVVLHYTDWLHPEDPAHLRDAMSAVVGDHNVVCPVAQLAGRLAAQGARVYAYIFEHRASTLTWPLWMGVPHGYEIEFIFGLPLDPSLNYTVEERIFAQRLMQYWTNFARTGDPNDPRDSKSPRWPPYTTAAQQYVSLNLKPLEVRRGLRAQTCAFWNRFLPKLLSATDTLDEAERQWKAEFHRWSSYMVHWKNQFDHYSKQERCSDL
Procedure: The in vitro inhibition of the enzymes acetylcholinesterase (AChE) and butyrylcholinesterase (BChE) were assessed. BChE, like AChE, breaks down acetylcholine (ACh) but is found in plasma and other organs such as the liver, skin and gastrointestinal tract.
The enzymes, AChE and BChE, used in the inhibition studies were prepared from the cortex and serum of decapitated rats, respectively.

[3] = target: T2, butyrylcholinesterase (BChE) (Rattus norvegicus, UniProt Q9JKC1); assay: biochemical
T2 construct: from tissue; host or cells: rat serum
T2 sequence (Q9JKC1 24-597): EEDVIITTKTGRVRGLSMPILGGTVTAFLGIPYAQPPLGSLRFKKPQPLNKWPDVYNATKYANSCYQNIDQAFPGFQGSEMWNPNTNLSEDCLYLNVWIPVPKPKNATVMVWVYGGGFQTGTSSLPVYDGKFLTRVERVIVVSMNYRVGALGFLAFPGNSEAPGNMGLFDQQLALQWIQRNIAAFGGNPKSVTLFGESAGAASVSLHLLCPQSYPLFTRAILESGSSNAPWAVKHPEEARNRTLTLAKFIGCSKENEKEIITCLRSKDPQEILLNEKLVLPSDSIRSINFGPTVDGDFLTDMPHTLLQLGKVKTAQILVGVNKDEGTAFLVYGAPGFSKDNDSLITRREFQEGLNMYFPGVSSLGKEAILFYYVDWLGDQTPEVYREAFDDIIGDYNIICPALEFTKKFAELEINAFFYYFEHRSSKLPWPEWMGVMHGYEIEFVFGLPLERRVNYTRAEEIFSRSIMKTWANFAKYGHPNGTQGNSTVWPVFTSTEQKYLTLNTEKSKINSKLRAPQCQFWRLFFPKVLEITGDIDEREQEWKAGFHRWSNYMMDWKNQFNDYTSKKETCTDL

[4] = 0.005 mg/kg, 5 minutes after ischemia
[5] = 0.05 mg/kg, 5 minutes after ischemia
[6] = 0.1 mg/kg, 5 minutes after ischemia
[7] = 0.2 mg/kg, 5 minutes after ischemia

O=c1ccc2c([nH]1)CCC(NCCCNc1c3c(nc4cc(Cl)ccc14)CCCC3)C2 (stereo not drawn) [Compound A]
% Infarct area in brain slice # 1 [1, 4]: 2.2 ± 2.0%
% Infarct area in brain slice # 2 [1, 4]: 48.8 ± 4.3%
% Infarct area in brain slice # 3 [1, 4]: 49.3 ± 4.4%
% Infarct area in brain slice # 4 [1, 4]: 26.5 ± 9.3%
% Infarct area in brain slice # 5 [1, 4]: −4.3 ± 0.6%
Hemispheric swelling (%) [1, 4]: 10.3 ± 0.4%
Infarct volume (%) [1, 4]: 31.3 ± 4.3%
Observed Neurological Deficits Mean ± SEM [1, 4]: 1.6 ± 0.2
Observed Neurological Deficits, score 0 (number of animals) [1, 4]: 0
Observed Neurological Deficits, score 1 (number of animals) [1, 4]: 2
Observed Neurological Deficits, score 2 (number of animals) [1, 4]: 3
Observed Neurological Deficits, score 3 (number of animals) [1, 4]: 0
n (dead/total): dead/total [1, 4]: 5 (5/10)
% Infarct area in brain slice # 1 [1, 5]: −0.4 ± 2.2%
% Infarct area in brain slice # 2 [1, 5]: 39.1 ± 2.4 %
% Infarct area in brain slice # 3 [1, 5]: 44.5 ± 0.9 %
% Infarct area in brain slice # 4 [1, 5]: 17.1 ± 3.2 %
% Infarct area in brain slice # 5 [1, 5]: −6.3 ± 2.8%
Hemispheric swelling (%) [1, 5]: 15.5 ± 1.1%
Infarct volume (%) [1, 5]: 24.8 ± 1.1 %
Observed Neurological Deficits Mean ± SEM [1, 5]: 1.2 ± 0.2
Observed Neurological Deficits, score 0 (number of animals) [1, 5]: 0
Observed Neurological Deficits, score 1 (number of animals) [1, 5]: 5
Observed Neurological Deficits, score 2 (number of animals) [1, 5]: 1
Observed Neurological Deficits, score 3 (number of animals) [1, 5]: 0
n (dead/total): dead/total [1, 5]: 6 (1/7)
% Infarct area in brain slice # 1 [1, 6]: 2.0 ± 1.8%
% Infarct area in brain slice # 2 [1, 6]: 49.5 ± 2.0 %
% Infarct area in brain slice # 3 [1, 6]: 48.4 ± 1.8 %
% Infarct area in brain slice # 4 [1, 6]: 10.4 ± 3.3 %
% Infarct area in brain slice # 5 [1, 6]: −9.9 ± 1.7%
Hemispheric swelling (%) [1, 6]: 12.5 ± 1.1%
Infarct volume (%) [1, 6]: 26.5 ± 1.4 %
Observed Neurological Deficits Mean ± SEM [1, 6]: 1.2 ± 0.1
Observed Neurological Deficits, score 0 (number of animals) [1, 6]: 0
Observed Neurological Deficits, score 1 (number of animals) [1, 6]: 7
Observed Neurological Deficits, score 2 (number of animals) [1, 6]: 2
Observed Neurological Deficits, score 3 (number of animals) [1, 6]: 0
n (dead/total): dead/total [1, 6]: 9 (4/13)
% Infarct area in brain slice # 1 [1, 7]: 1.3 ± 0.7%
% Infarct area in brain slice # 2 [1, 7]: 44.7 ± 6.6%
% Infarct area in brain slice # 3 [1, 7]: 49.0 ± 3.8%
% Infarct area in brain slice # 4 [1, 7]: 37.3 ± 3.8%
% Infarct area in brain slice # 5 [1, 7]: −3.3 ± 1.6%
Hemispheric swelling (%) [1, 7]: 15.2 ± 1.2%
Infarct volume (%) [1, 7]: 33.8 ± 1.6%
Observed Neurological Deficits Mean ± SEM [1, 7]: 1.9 ± 0.7
Observed Neurological Deficits, score 0 (number of animals) [1, 7]: 0
Observed Neurological Deficits, score 1 (number of animals) [1, 7]: 2
Observed Neurological Deficits, score 2 (number of animals) [1, 7]: 4
Observed Neurological Deficits, score 3 (number of animals) [1, 7]: 1
n (dead/total): dead/total [1, 7]: 7 (4/11)
infarct area (in words) ([1]; 0.05 and 0.1 mg/kg, 5 minutes after ischemia, FIG. 5e): improvement in the infarct area
infarct volume and hemispheric swelling (in words) ([1]; 5 minutes after ischemia (compound A: 0.05 and 0.1 mg/kg), FIG. 5b, 5f): decreases infarct volume but not hemispheric swelling
neurological deficits induced by ischemia (in words) ([1]; administered 5 minutes after ischemia): reduced neurological deficits induced by ischemia
times more potent than bis(7)-tacrine ([2]; AChE inhibition): ~53
times more potent than tacrine ([2]; AChE inhibition): ~200
Selectivity AchE* ([2]; IC50 (BChE)/IC50 (AChE)): 227.23
IC50 ([2]; enzyme prepared from rat cortex): 0.25 ± 0.05 nM
IC50 [3]: 56.7 ± 25 nM
